Measurements taken from patent US20250003008A1, “METHODS FOR TREATMENT OF CANCER” (The Johns Hopkins University, priority 2021, published 2025).
Where two headings read alike, the source gives them in different places.

Key:
[1] = Protocol: PrE0505, a phase 2 single arm multicenter study, enrolled human patients with previously untreated unresectable MPM (NCT02899195, FIG. 1). […] Patients with stable or responding tumors after concurrent therapy, continued on maintenance durvalumab for a maximum duration of one year from the first study treatment. A protocol-defined safety review was performed after enrollment of the first 6 and 15 patients. Pre-specified dose-limiting toxicities during the safety run-in period included any immune-mediated adverse event of ≥grade 4 or any non-resolving immune-mediated adverse event of ≥grade 3 during the first two cycles of therapy.
Imaging was performed every 6 weeks during the concurrent phase of treatment and every 9 weeks during maintenance durvalumab. Best objective response was evaluated by RECIST Version 1.1 criteria modified for mesothelioma. Toxicity was determined using the CTCAE Version 4.03 criteria.
Secondary objectives included safety and tolerability of durvalumab and durvalumab in combination with chemotherapy in subjects with malignant pleural mesothelioma, percentage of patients progression-free at 24 weeks from the time of registration (response coded based on modified RECIST 1.1 criteria for mesothelioma), progression-free survival-measured from the time of study registration until radiologic progression, clinical progression or death, best objective response rate with evaluation continued up to 1 year (response coded based on modified RECIST Version 1.1 criteria for mesothelioma). Exploratory objectives included assessment of tumor baseline PD-L1 expression, the genomic and neoantigen landscape of tumors, dynamics of circulating cell free tumor DNA and other blood-based biomarkers.

[2] = system: malignant pleural mesothelioma; details: historical control, phase 3 study; cited from earlier work
[3] = of the patients who received that agent within the regimen

Compound	patients who received a dose reduction due to toxicity [1, 3]	further results
N.N.O=C([O-])C1(C(=O)[O-])CCC1.[Pt+2] [carboplatin]	12%	
N.N.[Cl][Pt][Cl] [cisplatin]		survival [2]: 9.3 months
Nc1nc2[nH]cc(CCc3ccc(C(=O)N[C@@H](CCC(=O)O)C(=O)O)cc3)c2c(=O)[nH]1 [pemetrexed]		patients who received a dose reduction due to toxicity ([1]; human, in vivo): 2%
durvalumab	no patients	
